From paper PMC7108782, “Direct interaction of metastasis-inducing S100P protein with tubulin causes enhanced cell migration without changes in cell adhesion” (Biochemical Journal, 2020)
“Also recorded” adds a separate entry of the source. No end group written: not given here.

Tests used:
S100P = molecular target: T1, S100P (Homo sapiens, UniProt P25815); test: Isothermal titration calorimetry (ITC) of tubulin peptides with S100P; type: binding; conditions: ITC, 25°C, 20 mM MES pH 6.1, 50 mM NaCl, 1.0 mM TCEP, 5 mM CaCl2; single site fit; peptide in cell, S100P titrated
T1 construct: made in house
T1 sequence (P25815 1-95): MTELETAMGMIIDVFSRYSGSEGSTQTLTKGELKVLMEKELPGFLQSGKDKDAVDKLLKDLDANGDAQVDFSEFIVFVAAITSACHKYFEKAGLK
Description: Measurements were conducted using an ITC-200 instrument (Microcal) as previously described. ITC titrations were performed in 20 mM MES pH 6.1, 50 mM NaCl, 1.0 mM TCEP and 5 mM CaCl2 (for Ca^2+-form of S100P) at 25°C. Due to low solubility, peptide solutions at concentrations of 10–400 µM were placed in the cell and titrated with S100P at concentrations of 0.5–3 mM, depending on the peptide concentration. Data were integrated and fitted to a single site binding equation using Origin 7 software which was included with the ITC module (Malvern Microcal, Malvern, U.K.).

[1] = type: physicochemical; conditions: pH 6.1
Description: ^1H, ^15N HSQC spectra were measured at 40°C in 20 mM 2-morpholinoethanesulfonic acid sodium salt (MES), 50 mM NaCl, 0.5 mM CaCl2, 2 mM Tris-carboxyethyl-phosphine (TCEP), pH 6.1 buffer as described previously. Samples were prepared from 1.6 mM solution of ^15N-labelled S100P and 2–5 mM peptide solutions to obtain a 1 : 1 mixture of 0.1 mM of S100P and 0.1 mM of each peptide. Initially, peptide solutions were prepared by weight to produce 5 mM peptide concentrations. […] In these cases, buffer was added to reduce the peptide concentration to 2 mM. […] These peptides were added to the protein as cloudy suspensions to produce 0.1 mM solutions; some precipitations were still detected. To estimate the peptide concentrations, equivalent peptide solutions without the protein were prepared. All solutions were centrifuged before the NMR measurements. NMR spectra were collected on Bruker Avance III 800 MHz spectrometer equipped with CryoProbe. Data were processed and analysed in TopSpin 3.5 (Bruker, Karlsruhe, Germany).
Measurements were conducted using an ITC-200 instrument (Microcal) as previously described. ITC titrations were performed in 20 mM MES pH 6.1, 50 mM NaCl, 1.0 mM TCEP and 5 mM CaCl2 (for Ca^2+-form of S100P) at 25°C. […]

Rama 37 cells = test: Boyden chamber cell migration with MT regulators, Rama 37; conditions: 20 nM taxol, 24 h
Rama 37-T25 cells = test: S100P-enhanced cell migration, Rama 37-T25; type: cell-based, rat; conditions: Rama 37-T25; 20 nM taxol or 5 µM colchicine, 24 h
Source text: (§1) Cell migration rate (%) = M/G × 100.

HeLa cells = test: Boyden chamber cell migration with MT regulators, HeLa; conditions: 20 nM taxol, 24 h
cell migration = conditions: almost all cell types tested, ref [17]; cited from earlier work
Source text: It was reported that complete disruption of MTs in CHO and HeLa cells retained normal migration rates, but the resultant movement became more random and reduced overall travel distance.

COS-7 cells = test: Boyden chamber cell migration, COS-7 parental; type: cell-based, monkey
Source text: as §1

COS-7 S10 cells = test: Boyden chamber cell migration, S100P-inducible COS-7; type: cell-based, monkey; conditions: for effect on S100P-enhanced migration: COS-7 S10, 20 nM taxol or 5 µM colchicine, 24 h
Source text: as §1

HeLa-A3 cells = test: S100P-enhanced cell migration, HeLa-A3; type: cell-based, human; conditions: HeLa-A3; 20 nM taxol or 5 µM colchicine, 24 h
Source text: as §1

MCF-7 cells = test: Boyden chamber cell migration with MT regulators, MCF-7; conditions: 20 nM taxol, 24 h, MCF-7
Dicytostelial cells = conditions: ref [40]; cited from earlier work
Source text: It was reported that complete disruption of MTs in CHO and HeLa cells retained normal migration rates, but the resultant movement became more random and reduced overall travel distance. […] Well-established MTs may increase the rigidity of cells as well as their polarity and play a constraining role to limit a cell's ability of moving and changing direction. […] However, unlike the scratch wound- ...

[2] = molecular target: T2, α,β-tubulin immobilised on a chip (human | , UniProt Q71U36 1-451; P07437 1-444); test: SPR; α,β-tubulin immobilised on CM5 chip; S100P in solution; single-cycle analysis; Kd near equilibrium; conditions: both partners purified
[3] = molecular target: T2, α,β-tubulin immobilised on a chip; test: SPR; α,β-tubulin immobilised on CM5 chip (BS3), Biacore X100; S100P 20-2000 nM in solution; 0.15 M NaCl, 200 µM CaCl2; multiple-cycle; Kd from extent of binding near equilibrium; conditions: both partners purified
[4] = molecular target: T2, α,β-tubulin immobilised on a chip; test: cell-based or functional assay
[5] = molecular target: VNA peptide from the C terminus of α-tubulin (human); test: ITC; peptide (10-400 µM) in the cell titrated with S100P (0.5-3 mM); 25°C; 20 mM MES pH 6.1, 50 mM NaCl, 1.0 mM TCEP, 5 mM CaCl2; single site fit
[6] = molecular target: DIC peptide, the 26mer starting with DIC from β-tubulin; test: as above
[7] = molecular target: T2, α,β-tubulin immobilised on a chip; test: SPR; α,β-tubulin immobilised on CM5 chip; S100P in solution; Kd from the ratio of forward and backward rate constants; conditions: both partners purified
[8] = molecular target: T2, α,β-tubulin immobilised on a chip; test: SPR; α,β-tubulin immobilised on CM5 chip; S100P in solution; high salt buffer (0.5 M NaCl) with 200 µM CaCl2; multiple cycles; Kd at or near equilibrium; conditions: both partners purified

T2 sequence (P68363 whole entry, chain 1 of 2): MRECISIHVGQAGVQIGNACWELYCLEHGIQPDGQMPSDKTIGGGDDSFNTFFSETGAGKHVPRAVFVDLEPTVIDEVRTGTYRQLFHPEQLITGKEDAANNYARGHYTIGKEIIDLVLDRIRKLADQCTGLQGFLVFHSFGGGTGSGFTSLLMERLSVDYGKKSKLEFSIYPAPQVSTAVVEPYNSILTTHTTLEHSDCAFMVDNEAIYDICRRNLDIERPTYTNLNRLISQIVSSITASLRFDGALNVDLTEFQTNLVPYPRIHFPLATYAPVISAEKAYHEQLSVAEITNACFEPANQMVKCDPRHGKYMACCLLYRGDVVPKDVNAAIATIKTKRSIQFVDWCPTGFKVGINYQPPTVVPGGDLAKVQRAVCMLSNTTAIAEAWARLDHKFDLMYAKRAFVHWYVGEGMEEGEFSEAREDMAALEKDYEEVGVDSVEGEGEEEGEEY
T2 sequence (P07437 whole entry, chain 2 of 2): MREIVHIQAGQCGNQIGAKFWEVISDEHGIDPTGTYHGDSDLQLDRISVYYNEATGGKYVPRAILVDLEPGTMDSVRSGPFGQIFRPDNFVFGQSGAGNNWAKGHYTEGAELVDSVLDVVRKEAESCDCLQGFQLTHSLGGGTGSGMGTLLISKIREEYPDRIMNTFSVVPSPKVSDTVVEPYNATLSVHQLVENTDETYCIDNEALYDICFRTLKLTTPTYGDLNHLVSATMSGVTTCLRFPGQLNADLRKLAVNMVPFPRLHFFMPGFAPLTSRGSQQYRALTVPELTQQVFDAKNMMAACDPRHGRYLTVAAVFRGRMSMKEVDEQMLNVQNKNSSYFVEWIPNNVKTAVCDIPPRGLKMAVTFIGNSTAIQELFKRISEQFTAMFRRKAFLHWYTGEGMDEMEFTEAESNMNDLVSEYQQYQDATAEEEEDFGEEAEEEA

DICFRTLKLTTPTYGDLNHLVSATMS [DIC]
Kd (S100P): 9 µM
solubility / aggregation (in words) [1]: sufficiently soluble to measure their binding parameters by ITC

CC(=O)O[C@H]1C(=O)[C@@]2(C)[C@H]([C@H](OC(=O)c3ccccc3)[C@]3(O)C[C@H](OC(=O)[C@H](O)[C@@H](NC(=O)c4ccccc4)c4ccccc4)C(C)=C1C3(C)C)[C@]1(OC(C)=O)CO[C@@H]1C[C@@H]2O [taxol]
reduction of migration by taxol (Rama 37 cells): 70–75%
effect on S100P-enhanced migration (Rama 37-T25 cells): suppressed
reduction of migration by taxol (HeLa cells): 70–75%
effect on cell migration (cell migration): significantly reduced cell migration in almost all cell types tested
reduction of migration by taxol (COS-7 cells; 20 nM taxol, 24 h, COS-7): 70–75%
dose dependence of taxol effect on migration (COS-7 cells; Supplementary Figure S4, COS-7, 24 h): significantly reduced cell migration in a dose-dependent manner
effect on S100P-enhanced migration (COS-7 S10 cells): suppressed
effect on S100P-enhanced migration (COS-7 S10 cells; listed as Taxol): completely prevents the S100P-induced stimulation of migration
effect on S100P's stimulation of migration (COS-7 S10 cells; taxol to stabilise MTs or colchicine to dissociate MTs (abstract)): abolished
effect on S100P-enhanced migration (HeLa-A3 cells): suppressed
reduction of migration by taxol (MCF-7 cells): 70–75%

COC(=O)Nc1nc2ccc(C(=O)c3cccs3)cc2[nH]1 [nocodazole]
effect on cell migration (Dicytostelial cells): could significantly increase cell migration and shape changes, but reduced chemotaxis; also recorded: dramatically enhance the non-directional (random) movements

B1: Recombinant S100P (natural protein)
chain: MTELETAMGMIIDVFSRYSGSEGSTQTLTKGELKVLMEKELPGFLQSGKDKDAVDKLLKDLDANGDAQVDFSEFIVFVAAITSACHKYFEKAGLK
modifications: 15N-labelled in the NMR experiments
notes: S100P; Used in SPR, gel overlay, NMR and ITC; also called 15N-labelled S100P; source: recombinant, produced as described previously [10]
Kd [2]: 0.22 µM
Kd [3]: 0.31 µM
S100P-induced fold increase in migration of COS-7 S10 cells (3.4 or 3.5 fold with DMSO or Tag), with 20 µM T-DIC [4]: 1.4 fold
S100P-induced fold increase in migration of COS-7 S10 cells (3.4 or 3.5 fold with DMSO or Tag), with 20 µM T-DLV [4]: 1.5 fold
Kd [5]: 62 µM
stoichiometry N (peptide:protein) [5]: 2
Kd [6]: 9 µM
Kd [7]: 0.1 to 0.2 µM
Kd [8]: 6.1 µM
